# Measurements reported in patent US7282507B2, “Indole derivatives as selective androgen receptor modulators (SARMS)” (Janssen Pharmaceutica N.V., priority 2004, dated 2007).
# Values joined by “and” are separate entries in the source; they are usually repeats but may differ in a detail not shown here. Equal values may be shown once.
# Experiments:
# [1] = target: T1, androgen receptor (AdEasy+rAR, COS-7 cells) (Rattus norvegicus, UniProt P15207); test: COS-7 Whole-Cell Androgen Receptor Binding Assay, Adenovirus Transduction; settings: for inhibition at 3 µM / % Inhibition, COS Binding: concentration of 3000 nM; for IC50: read-out: IC50 (nM), COS Binding
# T1 construct: expressed in transfected cells; host or cells: COS-7 cells transduced with adenovirus AdEasy+rAR
# T1 sequence (P15207 1-902): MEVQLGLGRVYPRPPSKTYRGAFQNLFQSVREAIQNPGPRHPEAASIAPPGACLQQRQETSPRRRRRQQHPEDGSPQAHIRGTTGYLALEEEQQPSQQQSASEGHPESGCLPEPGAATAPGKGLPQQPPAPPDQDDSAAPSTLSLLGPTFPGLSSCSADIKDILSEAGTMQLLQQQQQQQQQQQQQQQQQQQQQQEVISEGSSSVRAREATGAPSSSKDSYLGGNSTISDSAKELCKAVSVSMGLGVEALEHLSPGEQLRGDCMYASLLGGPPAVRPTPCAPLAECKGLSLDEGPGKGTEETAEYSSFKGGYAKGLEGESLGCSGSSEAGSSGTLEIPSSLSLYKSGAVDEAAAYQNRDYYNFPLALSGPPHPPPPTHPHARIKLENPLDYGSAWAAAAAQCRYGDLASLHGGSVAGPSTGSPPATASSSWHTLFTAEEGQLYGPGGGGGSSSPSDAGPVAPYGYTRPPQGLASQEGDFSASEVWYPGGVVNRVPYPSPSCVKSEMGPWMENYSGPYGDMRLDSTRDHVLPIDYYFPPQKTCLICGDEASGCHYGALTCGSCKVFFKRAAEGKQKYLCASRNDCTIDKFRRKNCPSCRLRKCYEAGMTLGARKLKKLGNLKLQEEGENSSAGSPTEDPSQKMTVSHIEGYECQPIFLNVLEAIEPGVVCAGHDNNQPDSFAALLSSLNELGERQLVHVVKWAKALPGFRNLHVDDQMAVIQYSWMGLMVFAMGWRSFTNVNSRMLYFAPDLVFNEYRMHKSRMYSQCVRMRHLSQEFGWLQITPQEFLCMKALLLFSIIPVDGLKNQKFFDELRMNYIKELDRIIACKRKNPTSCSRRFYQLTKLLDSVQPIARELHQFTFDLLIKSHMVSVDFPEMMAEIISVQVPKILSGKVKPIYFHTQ
# Outline: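 COS-7 cells in phenol red-free DMEM/F12 with 10% charcoal-treated FBS were transduced with AdEasy+rAR adenovirus (moi 1:50 per well), exposed to test compound in duplicate and incubated for 48 h at 37° C. Cells were then lysed in 0.5% Triton X-100 and bound radioactivity counted by scintillation.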
# [2] = target: T2, androgen receptor (AdEasy+rAR, L929 cells) (Rattus norvegicus, UniProt P15207); test: L929 Androgen Receptor Functional Assay, Adenovirus Transduction; format: cell-based; settings: for inhibition at 3 µM: L929, antagonist testing with R1881, 3000 nM; for % Inhibition, L929 androgen receptor functional assay: antagonist testing with R1881, 3000 nM
# T2 construct: expressed in transfected cells; host or cells: L929 cells transduced with adenovirus AdEasy+rAR
# T2 sequence (P15207 1-902): T1 sequence (P15207 1-902)
# Outline: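 L929 cells in phenol red-free, charcoal-stripped serum medium transduced with AdEasy+rAR (moi 1:500) and exposed 48 h at 37 °C to compound alone (agonist mode) or with R1881 (antagonist mode; 2.5 nM as the 2.5× dilution).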
Structure (SMILES),inhibition at 3 µM [1] [%],IC50 [1],inhibition at 3 µM [2] [%],"% Activity, L929 androgen receptor functional assay ([2]; agonist testing, 3000 nM) [%]",also measured
CCS(=O)(=O)CC(C)(O)c1cc2cc([N+](=O)[O-])c(C(F)(F)F)cc2[nH]1 (stereo not shown) [Compound 143],68,> 1500 nM,67,0,–
CCSCC(C)(O)c1cc2cc([N+](=O)[O-])c(C(F)(F)F)cc2n1C (racemic) [Compound 165],69,> 3000 nM,100,1,–
CCC(O)(CS(=O)(=O)CC)c1cc2cc([N+](=O)[O-])c(C(F)(F)F)cc2[nH]1 (stereo not shown) [Compound 176],75,–,81,3,–
CC(O)(CS(C)(=O)=O)c1cc2cc([N+](=O)[O-])c(C(F)(F)F)cc2[nH]1 (stereo not shown) [Compound 148],–,> 2400 nM,–,0,"% Inhibition, COS Binding ([1]; 3 µM): 32%; % Inhibition, L929 androgen receptor functional assay ([2]; 3 µM): 77%"
COc1ccc(S(=O)(=O)CC(C)(O)c2cc3cc(Cl)c(C(F)(F)F)cc3[nH]2)cc1 (racemic) [Compound 129],–,–,–,−5,"% Inhibition, COS Binding [1]: 10%; % Inhibition, L929 androgen receptor functional assay [2]: −8%"
CC(O)(CCS(C)(=O)=O)c1cc2cc([N+](=O)[O-])c(C(F)(F)F)cc2[nH]1 (stereo not shown) [Compound 49],30,> 3000 nM,8,2,–
CC(O)(CS(=O)(=O)c1ccc(N)cc1)c1cc2cc(Cl)c(C(F)(F)F)cc2[nH]1 (stereo not shown) [Compound 118],62,> 1500 nM,63,–,"EC50 ([2]; agonist testing): > 8000 nM; % Activity, L929 androgen receptor functional assay ([2]; agonist testing, @ 8000 nM): −2 @ 8000 nM %; IC50 ([2]; antagonist testing with R1881): 3070 nM"
"CCSCC(C)(O)c1cc2cc([N+](=O)[O-])c(C(F)(F)F)cc2[nH]1 (single isomer, unassigned) [Compound 149]",63,780 nM and > 790 nM,77,2,–
COc1ccc(SCC(C)(O)c2cc3cc(Cl)c(C(F)(F)F)cc3n2S(C)(=O)=O)cc1 (racemic) [Compound 130],–,–,–,−5,"% Inhibition, COS Binding [1]: −8%"
